One may read the Ki as the dissociation constant of the complex between target and ligand, obtained from inhibition or displacement.

The values below come from ChEMBL document CHEMBL1148394, “Design, synthesis, and in vitro biological evaluation of small molecule inhibitors of estrogen receptor alpha coactivator binding” (J Med Chem, 2004).

This experiment addresses Estrogen receptor (Homo sapiens, UniProt Q92731+P03372). In words: Binding affinity towards estrogen receptor was determined. The experiment is classed as protein assay.

The structures appear in SMILES notation.

`CC(C)CNC(=O)[C@]1(C)C[C@](C)(C(=O)NCC(C)C)C[C@](C)(C(=O)NCC(C)C)C1` came in with a Ki of over 1000 µM.
To `CC(C)CC[C@H]1S[C@@H](CCC(C)C)S[C@@H](CCC(C)C)S1` belongs over 1000 µM; to `CCC(C)CNCCc1ccc2ccc(CCNCC(C)CC)cc2c1` (stereo not drawn), over 1000 µM; to `CC(C)CCc1nc(NCC(C)C)nc(N(CC(=O)O)C(C)C)n1`, 410 µM.
Under `CCCNc1nc(NCCC)nc(NCCC)n1` stands 290 µM.
To `CCCCCCCNc1nc(NCCCCCCC)nc(NCCCCCCC)n1` belongs 290 µM.
In turn, `c1ccc2cc(CNc3nc(NCc4ccc5ccccc5c4)nc(NCc4ccc5ccccc5c4)n3)ccc2c1` showed a Ki of 290 µM.
To `c1ccc(CNc2nc(NCc3ccccc3)nc(NCc3ccccc3)n2)cc1` belongs 240 µM.
Turning to `c1ccc(CCc2cc(NCc3ccccc3)nc(NCc3ccccc3)n2)cc1`, the Ki is 49 µM.
Under `CC(C)CCc1nc(NCC(C)C)nc(NCC(C)C)n1` stands 650 µM; under `CC(C)CCNCCc1ccc2ccc(CCNCCC(C)C)cc2c1`, over 1000 µM; under `CC(C)CNc1nc(NCC(C)C)nc(NCC(C)C)n1`, 590 µM.
To `CC(C)CCc1nc(NCC(C)C)nc(N(CC(=O)O)CC(C)C)n1` belongs 790 µM.
